Consider 17 compounds from patent publication US8754054B2, “Antibacterial compounds, methods of making them, and uses thereof” (Albany Molecular Research, Inc., priority 2010, dated 2014).

≈ marks a conversion by molar mass, not a printed value.

In general, MIC refers to the lowest concentration that inhibits growth of the organism.

For one assay, the system named is MRSA 43300. As to the kind of experiment: Antibacterial activity, NCCLS dilution method (Table 9). Format: cell-based, S. aureus. To be noted: MRSA 43300; dilution method; labels marked a tested as a mixture of diastereomers. An excerpt:
NCCLS standards for antimicrobial susceptibility testing using the dilution method were followed. See: Performance Standards for Antimicrobial Susceptibility Testing; Fourteenth Informational Supplement. NCCLS Document M100-S14 (ISBN 1-56238-516-X), 2004. NCCLS, 940 West Valley Road, Suite 1400, Wayne, Pa. 19087-1898 USA, 2004; Methods for Dilution Antimicrobial Susceptibility Tests for Bacteria that Grow Aerobically; Approved Standard—Sixth Edition. NCCLS document M7-A6 (IBSBN 1-56238-486-4), NCCLS, 940 West Valley Road, Suite 1400, Wayne, Pa. 19087-1898 USA, 2003, which are hereby incorporated by reference in their entirety.
For “(6R,6aS,14aR)-Methyl 1,6,8,12,14a-pentahydroxy-11-((2S,3R,4R,5R,6S)-4-hydroxy-3,5-dimethoxy-6-methyltetrahydro-2H-pyran-2-ylamino)-12-((5-(2-hydroxypropyl)furan-3-yl)methyl)-6a-methoxy-3-methyl-7,9,14-trioxo-5,6,6a,7,9,12,14,14a-octahydrobenzo[a]tetracene-2-carboxylate [Example 61]”, the “MRSA 43300 MIC” value is 0.06 mg/L.

Still in this assay, the particulars now being: Staphylococcus aureus, MRSA, MRSA 43300; dilution method; labels marked a tested as a mixture of diastereomers; read-out: MRSA 43300 MIC.
Regarding `COC(=O)c1c(C)cc2c(c1O)[C@]1(O)C(=O)c3cc4c(c(O)c3C(=O)[C@]1(OC)[C@H](O)C2)C(=O)C=C(N[C@H]1O[C@@H](C)[C@H](OC)[C@@H](O)[C@H]1OC)C4(O)c1ccc(F)cc1` (single isomer, unassigned) [Example 58], the minimum inhibitory concentration (MIC) lay in the range of 8 to 16 mg/L (≈ 10.1 to 20.2 µM). As for `COC(=O)c1c(C)cc2c(c1OC)[C@]1(O)C(=O)c3cc4c(c(OC)c3C(=O)[C@]1(OC)[C@H](O)C2)C(=O)C=C(NC1O[C@@H](C)[C@H](OC)[C@@H](O)[C@H]1OC)C4=O` (mixture of isomers) [Example 5, (6R,6aS,14aR)-Methyl 6,14a-dihydroxy-11-((3R,4R,5R,6S)-4-hydroxy-3,5-dimethoxy-6-methyltetrahydro-2H-pyran-2-ylamino)-1,6a,8-trimethoxy-3-methyl-7,9,12,14-tetraoxo-5,6,6a,7,9,12,14,14a-octahydrobenzo[a]tetracene-2-carboxylate], the MIC was 2 mg/L (≈ 2.76 µM). Same read-out and setting: under `COC(=O)c1c(C)cc2c(c1O)[C@]1(O)C(=O)c3cc4c(c(O)c3C(=O)[C@]1(OC)[C@H](O)C2)C(=O)C=C(N[C@H]1O[C@@H](C)[C@H](OC)/C(=N/OCC(=O)O)[C@H]1OC)C4=O` [Example 51, 2-((Z)-((2S,3R,5R,6S)-3,5-Dimethoxy-2-methyl-6-((6R,6aS,14aR)-1,6,8,14a-tetrahydroxy-6a-methoxy-2-(methoxycarbonyl)-3-methyl-7,9,12,14-tetraoxo-5,6,6a,7,9,12,14,14a-octahydrobenzo[a]tetracen-11-ylamino)-2H-pyran-4(3H,5H,6H)-ylidene)aminooxy)acetic acid] stands 8 mg/L (≈ 10.4 µM); under `COC(=O)c1c(C)cc2c(c1O)[C@]1(O)C(=O)c3cc4c(c(O)c3C(=O)[C@]1(OC)[C@H](O)C2)C(=O)C=C(N[C@H]1O[C@@H](C)[C@H](OC)[C@@H](O)[C@H]1OC)C4=O` [Example 2, (6R,6aS,14aR)-methyl 1,6,8,14a-tetrahydroxy-11-((2S,3R,4R,5R,6S)-4-hydroxy-3,5-dimethoxy-6-methyltetrahydro-2H-pyran-2-ylamino)-6a-methoxy-3-methyl-7,9,12,14-tetraoxo-5,6,6a,7,9,12,14,14a-octahydrobenzo[a]tetracene-2-carboxylate], 0.008 mg/L (≈ 0.0115 µM); under `COCC/N=C1\C=C(N[C@H]2O[C@@H](C)[C@H](OC)[C@@H](O)[C@H]2OC)C(=O)c2cc3c(c(O)c21)C(=O)[C@]1(OC)[C@H](O)Cc2cc(C)c(C(=O)OC)c(O)c2[C@]1(O)C3=O` [Example 46, (6R,6aS,14aR,E)-methyl 1,6,8,14a-tetrahydroxy-11-((2S,3R,4R,5R,6S)-4-hydroxy-3,5-dimethoxy-6-methyltetrahydro-2H-pyran-2-ylamino)-6a-methoxy-9-(2-methoxyethylimino)-3-methyl-7,12,14-trioxo-5,6,6a,7,9,12,14,14a-octahydrobenzo[a]tetracene-2-carboxylate], 1 mg/L (≈ 1.32 µM). Same read-out and setting: the same measure for `COC(=O)c1c(C)cc2c(c1O)[C@]1(O)C(=O)c3cc4c(c(O)c3C(=O)[C@]1(OC)[C@H](O)C2)C(=O)C=C(N[C@H]1O[C@@H](C)[C@H](OC)C(=NO)[C@H]1OC)C4=O` (single isomer, unassigned) [Example 49]: 0.06 mg/L (≈ 0.0844 µM); for `COC(=O)c1c(C)cc2c(c1O)[C@]1(O)C(=O)c3cc4c5c(nc(=O)oc5c3C(=O)[C@]1(OC)[C@H](O)C2)C=C(N[C@H]1O[C@@H](C)[C@H](OC)[C@@H](O)[C@H]1OC)C4=O` [Example 60, (8aR,12R,12aS)-8a,12-Dihydroxy-5-((2S,3R,4R,5R,6S)-4-hydroxy-3,5-dimethoxy-6-methyltetrahydro-2H-pyran-2-ylamino)-12a-methoxy-8a,9,10,11,12,12a-hexahydro-(1-hydroxy-2-methoxycarbonyl-3-methylbenzo) [9,10-a]tetraceno[1,12-de][1,3]oxazine-2,6,8,13-tetraone]: 0.12 to 0.5 mg/L (≈ 0.166 to 0.692 µM); for `CO[C@@H]1[C@@H](O)[C@@H](OC)[C@@H](NC2=CC(=O)c3c(cc4c(c3O)C(=O)[C@]3(OC)[C@H](O)Cc5cc(C)c(C(N)=O)c(O)c5[C@]3(O)C4=O)C2=O)O[C@H]1C` [Example 20, (6R,6aS,14aR)-1,6,8,14a-Tetrahydroxy-11-((2S,3R,4R,5R,6S)-4-hydroxy-3,5-dimethoxy-6-methyltetrahydro-2H-pyran-2-ylamino)-6a-methoxy-3-methyl-7,9,12,14-tetraoxo-5,6,6a,7,9,12,14,14a-octahydrobenzo[a]tetracene-2-carboxamide]: 2 mg/L (≈ 2.93 µM). Still for that read-out and setting: under `CO[C@@H]1[C@@H](O)[C@@H](OC)C(NC2=CC(=O)c3c(cc4c(c3O)C(=O)[C@]3(OC)[C@H](O)Cc5cc(C)c(C(=O)N6CCCCC6)c(O)c5[C@]3(O)C4=O)C2=O)O[C@H]1C` (mixture of isomers) [Example 21, (6R,6aS,14aR)-1,6,8,14a-Tetrahydroxy-11-((3R,4R,5R,6S)-4-hydroxy-3,5-dimethoxy-6-methyltetrahydro-2H-pyran-2-ylamino)-6a-methoxy-3-methyl-2-(piperidine-1-carbonyl)-6,6a-dihydrobenzo[a]tetracene-7,9,12,14(5H,14aH)-tetraone] stands 1 mg/L (≈ 1.33 µM); under `COC(=O)c1c(C)cc2c(c1O)[C@]1(O)C(=O)c3cc4c(c(O)c3C(=O)[C@]1(OC)[C@H](O)C2)C(=O)C=C(N[C@H]1O[C@@H](C)[C@H](OC)[C@@H](O)[C@H]1OC)C4(O)c1ccccc1` (single isomer, unassigned) [Example 56], 8 mg/L (≈ 10.3 µM); under `COC(=O)c1c(C)cc2c(c1OCc1cccnc1)[C@]1(O)C(=O)c3cc4c(c(O)c3C(=O)[C@]1(OC)[C@H](O)C2)C(=O)C=C(N[C@H]1O[C@@H](C)[C@H](OC)[C@@H](O)[C@H]1OC)C4=O.Cl` [Example 11, (6R,6aS,14aR)-Methyl 6,8,14a-trihydroxy-11-((2S,3R,4R,5R,6S)-4-hydroxy-3,5-dimethoxy-6-methyltetrahydro-2H-pyran-2-ylamino)-6a-methoxy-3-methyl-7,9,12,14-tetraoxo-1-(pyridin-3-ylmethoxy)-5,6,6a,7,9,12,14,14a-octahydrobenzo[a]tetracene-2-carboxylate hydrochloride], 0.12 to 0.25 mg/L. With `COC(=O)c1c(C)cc2c(c1OC)[C@]1(O)C(=O)c3cc4c(c(O)c3C(=O)[C@]1(OC)[C@H](O)C2)C(=O)C=C(N[C@H]1O[C@@H](C)[C@H](OC)[C@@H](O)[C@H]1OC)C4=O` [Example 4, (6R,6aS,14aR)-Methyl 6,8,14a-trihydroxy-11-((2S,3R,4R,5R,6S)-4-hydroxy-3,5-dimethoxy-6-methyltetrahydro-2H-pyran-2-ylamino)-1,6a-dimethoxy-3-methyl-7,9,12,14-tetraoxo-5,6,6a,7,9,12,14,14a-octahydrobenzo[a]tetracene-2-carboxylate], the MIC lay within 0.06 to 0.12 mg/L (≈ 0.0843 to 0.169 µM).

`COC(=O)c1c(C)cc2c(c1O)[C@]1(O)C(=O)c3cc4c(c(O)c3C(=O)[C@]1(OC)[C@H](O)C2)C(=O)C=C(N[C@H]1O[C@@H](C)[C@H](OC)[C@@H](O[C@@H]2O[C@H](CO)[C@@H](O)[C@H](O)[C@H]2O)[C@H]1OC)C4=O` [Example 54, (6R,6aS,14aR)-Methyl 11-((2S,3R,4R,5S,6S)-3,5-dimethoxy-6-methyl-4-((2S,3R,4S,5S,6R)-3,4,5-trihydroxy-6-(hydroxymethyl)tetrahydro-2H-pyran-2-yloxy)tetrahydro-2H-pyran-2-ylamino)-1,6,8,14a-tetrahydroxy-6a-methoxy-3-methyl-7,9,12,14-tetraoxo-5,6,6a,7,9,12,14,14a-octahydrobenzo[a]tetracene-2-carboxylate]: the MIC came to 2 mg/L (≈ 2.33 µM). Same read-out and setting: under `COC(=O)c1c(C)c(Br)c2c(c1O)[C@]1(O)C(=O)c3cc4c(c(O)c3C(=O)[C@]1(OC)[C@H](O)C2)C(=O)C(Br)=C(N[C@H]1O[C@@H](C)[C@H](OC)[C@@H](O)[C@H]1OC)C4=O` [Example 39, (6R,6aS,14aR)-Methyl 4,10-dibromo-1,6,8,14a-tetrahydroxy-11-((2S,3R,4R,5R,6S)-4-hydroxy-3,5-dimethoxy-6-methyltetrahydro-2H-pyran-2-ylamino)-6a-methoxy-3-methyl-7,9,12,14-tetraoxo-5,6,6a,7,9,12,14,14a-octahydrobenzo[a]tetracene-2-carboxylate] stands 2 mg/L (≈ 2.34 µM); under `CO[C@@H]1[C@@H](O)[C@@H](OC)[C@@H](NC2=CC(=O)c3c(cc4c(c3O)C(=O)[C@]3(OC)[C@H](O)Cc5cc(C)c(C(=O)O)c(O)c5[C@]3(O)C4=O)C2=O)O[C@H]1C` [Example 13, (6R,6aS,14aR)-1,6,8,14a-Tetrahydroxy-11-((2S,3R,4R,5R,6S)-4-hydroxy-3,5-dimethoxy-6-methyltetrahydro-2H-pyran-2-ylamino)-6a-methoxy-3-methyl-7,9,12,14-tetraoxo-5,6,6a,7,9,12,14,14a-octahydrobenzo[a]tetracene-2-carboxylic acid], 32 mg/L (≈ 46.8 µM); under `CO[C@@H]1[C@@H](O)[C@@H](OC)[C@@H](NC2=CC(=O)c3c(cc4c(c3O)C(=O)[C@]3(OC)[C@H](O)Cc5cc(C)c(C(=O)OCC(C)C)c(O)c5[C@]3(O)C4=O)C2=O)O[C@H]1C` [Example 36], 0.12 mg/L (≈ 0.162 µM).
